Experimental data as given in patent US9138434B2, “Octahydrothienoquinoline derivative, pharmaceutical composition comprising derivative, and use of these” (KISSEI PHARMACEUTICAL CO., LTD., priority 2011, dated 2015).
pEC50: −log10 of the molar value. Like-named read-outs stand apart in the source and are kept apart here.

Assays:
[1] = target: T1, human dopamine D2 receptor (Homo sapiens, UniProt P14416); experiment: Stimulating activities on human dopamine D2 receptor, [35S]GTPγS binding to hD2R#7 cell membrane homogenates; type: biochemical; details: [35S]GTPγS binding, membrane homogenates of HEK293 cells stably expressing human D2 receptor; mean, n=2; read-out: EC50
T1 construct: accorded to it of human dopamine D2 receptor (NM1-000795) registered on NCBI completely; expressed in transfected cells; membrane homogenates
T1 sequence (P14416 whole entry): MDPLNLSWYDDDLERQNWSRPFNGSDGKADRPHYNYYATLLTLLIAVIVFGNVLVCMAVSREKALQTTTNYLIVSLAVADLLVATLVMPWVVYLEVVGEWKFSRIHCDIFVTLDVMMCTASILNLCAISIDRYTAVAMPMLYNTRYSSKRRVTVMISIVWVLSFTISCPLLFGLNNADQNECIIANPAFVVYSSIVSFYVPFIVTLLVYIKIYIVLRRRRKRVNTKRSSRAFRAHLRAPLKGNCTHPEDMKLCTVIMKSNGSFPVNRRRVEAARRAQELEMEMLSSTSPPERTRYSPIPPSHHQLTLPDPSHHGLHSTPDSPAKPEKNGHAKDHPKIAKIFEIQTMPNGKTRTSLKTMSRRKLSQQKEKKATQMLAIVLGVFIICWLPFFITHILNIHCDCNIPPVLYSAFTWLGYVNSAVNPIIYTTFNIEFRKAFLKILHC
Description: Identification Test of Stimulating Activities on Human Dopamine D2 Receptor
4) Preparation of Membrane Homogenates from hD2R#7 Cells
(2) Preparation of Membrane Homogenates from hD2R#7 Cells
The cells, which were grown to confluence in 150 mm dishes (IWAKI), were harvested with isotonic buffer (50 mM Tris (Sigma), 2 mM ethylenediamine-tetraacetic acid (Invitrogen), and 125 mM sodium chloride (Wako Pure Chemicals), pH 7.4) and centrifuged at 1880×g and 4° C. for 10 minutes, and the cell pellets were then suspended in isotonic buffer. After being subjected to one cycle of freezing and thawing, the cells were centrifuged at 1880×g and 4° C. for 10 minutes, and the cell pellets were suspended in isotonic buffer. The cells were centrifuged at 1880×g and 4° C. for 10 minutes, and the cell pellets were suspended in isotonic buffer and homogenate buffer (10 mM sodium bicarbonate (Nacalai) and 5 mM ethylenediamine-tetraacetic acid, pH 7.5). The volume ratio of isotonic-to-homogenate buffer was 2. The cells were sonicated and centrifuged at 1880×g and 4° C. for 10 minutes, and the supernatants were ultracentrifuged at 80000×g and 4° C. for 30 minutes. The final cell pellets were suspended in homogenate buffer containing protease inhibitor cocktail (Nacalai) and stored at −80° C. until use. The protein concentration was determined using BCA Protein Assay Kit (Pierce) in accordance with the manufacturer's instructions.
5) Determination of Stimulating Activities of Human Dopamine D2 Receptor
The stimulating activities of human dopamine D2 receptor was determined by measuring the binding potential of [^35S]-guanosine 5′-[gamma-thio]triphosphate ([^35S]GTPγS, PerkinElmer) according to the method described by Newman-Tancredi A. et al. (Naunyn-Schmiedeberg's Arch Pharmacol, 1999, vol. 359, pp. 447-453) with a minor modification. Test compounds and dopamine hydrochloride (Fluka) as positive control were dissolved in dimethyl sulfoxide (CARLBIOCHEM), resulting in 30 mM. The both compounds were diluted with assay buffer (50 mM Tris, 100 mM sodium chloride, 5 mM magnesium chloride (Nacalai), 1 mM ethylenediamine-tetraacetic acid, 1 mM dithiothreitol (Wako Pure Chemicals), 10 μM guanosine diphosphate (Wako Pure Chemicals) and 0.5% bovine serum albumin (Sigma), pH 7.4) to a final concentration of 100 pM (only test compounds), 1 nM, 10 nM, 100 nM, 1 μM, 10 μM and 100 μM (only dopamine hydrochloride). The above membrane homogenates and [^35S]GTPγS were diluted with assay buffer to a final concentration of 0.06 mg/mL and 0.6 nM, respectively. The serial diluted compounds (50 μL), the diluted membrane homogenates (50 μL) and the diluted [^35S]GTPγS (50 μL) were mixed on multi-screen 96-well plate (Millipore) and shaken lightly at room temperature for 60 minutes. The reaction was terminated by vacuum filtration with three times washes of ice-cold wash buffer (50 mM Tris, 100 mM sodium chloride, 5 mM magnesium chloride, and 1 mM ethylenediamine-tetraacetic acid, pH 7.4). After drying the bottoms of the plate at 60° C., MicroScinti-40 (PerkinElmer) (30 μL) was added in the plate. The tops of the plate were sealed by TopSeal-A (PerkinElmer), and the radioactivity was determined in a TopCount NXT (registered mark) (PerkinElmer) after shaking lightly for 5-10 minutes. The data was analyzed by nonlinear regression and sigmoidal dose-response curve fitting using GraphPad PRISM 4.0 (GraphPad Software), and values of EC50 (concentration of the compound producing half the maximal effect of the compound) were calculated. The data was presented as mean value (n=2).

[2] = target: T2, human serotonin 5-HT2B receptor (Homo sapiens, UniProt P41595); experiment: Stimulating activities on human serotonin 5-HT2B receptor, intracellular calcium in forced expression HEK293 cells; type: cell-based
T2 construct: expressed in transfected cells; host or cells: HEK293, transient transfection (Lipofectamine 2000)
T2 sequence (P41595 whole entry): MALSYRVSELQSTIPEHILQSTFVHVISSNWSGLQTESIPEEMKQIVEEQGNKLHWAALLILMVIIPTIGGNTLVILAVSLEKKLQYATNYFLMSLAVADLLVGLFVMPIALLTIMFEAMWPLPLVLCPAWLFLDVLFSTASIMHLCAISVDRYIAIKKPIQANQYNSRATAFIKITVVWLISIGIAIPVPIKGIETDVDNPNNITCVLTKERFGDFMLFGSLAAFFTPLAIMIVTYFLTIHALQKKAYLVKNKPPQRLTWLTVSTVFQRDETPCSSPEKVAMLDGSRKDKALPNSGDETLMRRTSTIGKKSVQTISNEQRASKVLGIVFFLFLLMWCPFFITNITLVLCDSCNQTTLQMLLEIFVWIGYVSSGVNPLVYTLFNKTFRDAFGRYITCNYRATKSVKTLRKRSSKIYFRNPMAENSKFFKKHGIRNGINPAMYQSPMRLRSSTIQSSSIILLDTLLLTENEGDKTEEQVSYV
Description: Identification Test of Stimulating Activities on Human Serotonin 5-HT2B Receptor
The PCR was performed using forward primer depicted as sequence ID No. 4, reverse primer depicted as sequence ID No. 5 and KOD-Plus-Ver.2 (TOYOBO) as template of human brain hippocampus cDNA (Clontech). The PCR product was inserted into a plasmid (pcDNA3.1/V5-His-Topo (registered mark)). The PCR product-inserted plasmid was transformed in E. coli (One Shot TOP10 Chemically Competent). That E. coli was incubated in LB agar medium contained 50 μg/mL ampicillin for a day. A selected colony was incubated in LB medium contained 50 μg/mL ampicillin and PCR product-inserted plasmid was purified with QIAprep Spin Miniprep Kit (QIAGEN).
Mostly confluent HEK293 cells were washed with PBS, followed by exfoliation with 0.05% trypsin-EDTA and the cells were suspended in D-MEM liquid medium (phenol red-free, low glucose, pyruvic acid were contained) containing fetal bovine serum (final concentration: 10%) and GlutaMax (registered mark)I (final concentration: 2 mM). The suspension was scattered at 5×10^4 cells/100 L/well on poly-D-lysine-coated 96-well microplate (BD BioCoat (registered mark)). The scattered cells were cultured in 5% CO2 incubator at 37° C. Human serotonin 5-HT2B receptor expression plasmid was transfected in that cells according to the procedure seeing below.
Human serotonin 5-HT2B receptor expression plasmid and Lipofectamine (registered mark) 2000 (Invitrogen) were diluted to 0.008 g/L and 0.016 g/L each other with OPTI-MEM (registered mark)I Reduced-Serum Medium and incubated at room temperature. After incubation, the human serotonin 5-HT2B receptor exoression plasmid-diluted liquid and Lipofectamine (registered mark) 2000-diluted liquid were mixed at an equal volume and incubated at room temperature to form a complex. The complex was dispensed at 50 μL/well on the cells prepared above. The cells were incubated in 5% CO2 incubator at 37° C. for 2 days. After incubation, the cells were used as human serotonin 5-HT2B receptor forced expression cells for measurement of intracellular calcium concentration.
3) Determination of Stimulating Activities of Human Serotonin 5-HT2B Receptor
The stimulating activities of human serotonin 5-HT2B receptor was determined by measuring of intracellular calcium concentration. The 30 mM dimethyl sulfoxide (DMSO) solution contained test compounds or serotonin hydrochloride (Sigma) as positive control, was diluted with assay buffer ((HBSS), 20 mM HEPES, 1.3 mM calcium chloride, 0.5 mM magnesium chloride and 0.4 mM magnesium sulfate were contained, pH7.4) to appropriate concentration.
The forced expression cells were washed with assay buffer, and 100 μL/well of fluorescent calcium indicator (Fluo-4 NW Calcium Assay Kit) was added and incubated in 5% CO2 incubator at 37° C. After incubation, 50 μL/well of each test compound was added, and the concentration of intracellular calcium was measured as fluorescent signal with FlexStation (registered mark) II (Molecular Devices). The data was analyzed by nonlinear regression and sigmoidal dose-response curve fitting using GraphPad PRISM 4.0, and values of EC50 (concentration of the compound producing half the maximal effect of the compound) were calculated. The data was presented as mean value (n=2).

[3] = intracellular calcium (Fluo-4), HEK293 cells transiently expressing human 5-HT2B receptor, mean, n=2, read-out: EC50

| Compound | pEC50 [1] | pEC50 [2, 3] | pEC50 [2] |
| --- | --- | --- | --- |
| CCCCN(C(=O)NCCN1CCCCC1)C(=O)[C@@H]1C[C@@H]2Cc3c(sc(N)c3C#N)C[C@H]2N(C)C1 (relative stereo) [1-46, 1-{[(4aR*,6R*,8aR*)-2-amino-3-cyano-8-methyl-4H,4aH,5H,6H,7H,8H,8aH,9H-thieno[3,2-g]quinolin-6-yl]carbonyl}-1-butyl-3-[2-(piperidin-1-yl)ethyl]urea] | 8.00 | < 5.00 | – |
| CCCCN(C(=O)NCCN(CC)CC)C(=O)[C@@H]1C[C@@H]2Cc3c(sc(N)c3C#N)C[C@H]2N(C)C1 [1-3, 1-{[(4aR,6R,8aR)-2-amino-3-cyano-8-methyl-4H,4aH,5H,6H,7H,8H,8aH,9H-thieno[3,2-g]quinolin-6-yl]carbonyl}-1-butyl-3-[2-(diethylamino)ethyl]urea] | 8.15 | < 5.00 | – |
| CCN(C(=O)NCC(C)(C)CN(C)C)C(=O)[C@@H]1C[C@@H]2Cc3c(sc(N)c3C#N)C[C@H]2N(C)C1 [1-4, 1-{[(4aR,6R,8aR)-2-amino-3-cyano-8-methyl-4H,4aH,5H,6H,7H,8H,8aH,9H-thieno[3,2-g]quinolin-6-yl]carbonyl}-3-[3-(dimethylamino)-2,2-dimethylpropyl]-1-ethlylurea] | 8.52 | < 5.00 | – |
| CCN(C(=O)N[C@@H](C)CN(C)C)C(=O)[C@@H]1C[C@@H]2Cc3c(sc(N)c3C#N)C[C@H]2N(C)C1 [1-57, 1-{[(4aR,6R,8aR)-2-amino-3-cyano-8-methyl-4H,4aH,5H,6H, 7H,8H,8aH,9H-thieno[3,2-g]quinolin-6-yl]carbonyl}-3-[(2S)-1-(dimethylamino)propan-2-yl]-1-ethylurea] | 8.30 | < 5.00 | – |
| CCN(C(=O)NCCN(C)C)C(=O)[C@@H]1C[C@@H]2Cc3c(sc(N)c3C#N)C[C@H]2N(C)C1 [1-108, 1-{[(4aR,6R,8aR)-2-amino-3-cyano-8-methyl-4H,4aH,5H,6H,7H,8H,8aH,9H-thieno[3,2-g]quinolin-6-yl]carbonyl}-3-[2-(dimethylamino)ethyl]-1-ethylurea] | 8.22 | < 5.00 | – |
| CCCN(CCC)CCc1cccc2c1CC(=O)N2 [Ropinirole, ropinirole, reference compound] | 6.05 | – | 5.59 |

Second part, led by results:

| pEC50 [1] | pEC50 [2, 3] | Compound | pEC50 [2] |
| --- | --- | --- | --- |
| 7.77 | < 5.00 | CCCCN(C(=O)NCCN(C)C)C(=O)[C@@H]1C[C@@H]2Cc3c(sc(N)c3C#N)C[C@H]2N(C)C1 (relative stereo) [1-24, 1-{[(4aR*,6R*,8aR*)-2-amino-3-cyano-8-methyl-4H,4aH,5H,6H,7H,8H,8aH,9H-thieno[3,2-g]quinolin-6-yl]carbonyl}-1-butyl-3-[2-(dimethylamino)ethyl]urea] | – |
| 7.49 | < 5.00 | CC(C)CCN(C(=O)NCCN(C)C)C(=O)[C@@H]1C[C@@H]2Cc3c(sc(N)c3C#N)C[C@H]2N(C)C1 (relative stereo) [1-43, 1-{[(4aR*,6R*,8aR*)-2-amino-3-cyano-8-methyl-4H,4aH,5H,6H,7H,8H,8aH,9H-thieno[3,2-g]quinolin-6-yl]carbonyl}-3-[2-(dimethylamino)ethyl]-1-(3-methylbutyl)urea] | – |
| 8.22 | < 5.00 | CCCN(C(=O)NCCN(C)C)C(=O)[C@@H]1C[C@@H]2Cc3c(sc(N)c3C#N)C[C@H]2N(C)C1 [1-1, 1-{[(4aR,6R,8aR)-2-amino-3-cyano-8-methyl-4H,4aH,5H, 6H,7H,8H,8aH,9H-thieno[3,2-g]quinolin-6-yl]carbonyl}-3-[2-(dimethylamino)ethyl]-1-propylurea] | – |
